SMILES strings stand for the structures.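 In this assay, cells in 96-well plates receive the compound at five concentrations for 48 hours. Endpoints are linearly interpolated between the surrounding concentrations. GI50 = concentration required for 50% inhibition of growth. The concentration for full growth arrest is given as TGI.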

The values that follow come from PubChem BioAssay (NCI).

Test systems include HL-60(TB) leukemia; BT-549 breast; SK-MEL-2 melanoma; NCI-H226 lung; SN12C renal; SK-MEL-5 melanoma; PC-3 prostate; NCI-H23 lung; RXF 393 renal; UACC-257 melanoma.
Assay in all cases: growth of human tumour cells (NCI), 48 h

As to `COc1cccc2c(=O)c3c(sc12)c(NCCCN)nc1ccccc13`, the GI50 in the assay on HL-60(TB) leukemia was 1.98 µM; in the assay with BT-549 breast, 10.8 µM; in the assay with SK-MEL-2 melanoma, 2 µM; in the assay with NCI-H226 lung it was 1.52 µM; with SN12C renal, 1.45 µM; with SK-MEL-5 melanoma it was 1.69 µM. Moreover, the GI50 in the assay on PC-3 prostate is 1.58 µM; in the assay with NCI-H23 lung, 1.56 µM; with RXF 393 renal, 1.53 µM; in the assay on UACC-257 melanoma, 2 µM. Also, the TGI with HL-60(TB) leukemia is 3.94 µM; in the assay on BT-549 breast, 26.5 µM; in the assay on SK-MEL-2 melanoma, 4.15 µM; with NCI-H226 lung, 3.15 µM; in the assay with SN12C renal, 2.85 µM; in the assay on SK-MEL-5 melanoma, 3.07 µM. For the same molecule, the TGI in the assay with PC-3 prostate is 3.14 µM; with NCI-H23 lung it was 2.99 µM; in the assay with RXF 393 renal, 2.96 µM; with UACC-257 melanoma it was 4.17 µM.
Regarding `Cn1c2ccccc2n2c3nc4ccccc4nc3c(C#N)c12`, the TGI with HL-60(TB) leukemia, with BT-549 breast, with SK-MEL-2 melanoma, in the assay with NCI-H226 lung, in the assay on SN12C renal and in the assay on SK-MEL-5 melanoma was above 100 µM throughout. Besides, the TGI with PC-3 prostate, with NCI-H23 lung, in the assay with RXF 393 renal and in the assay on UACC-257 melanoma was above 100 µM in each case.
In the case of `O=[N+]([O-])/C=C\c1ccc2c(c1)OCO2`, the GI50 in the assay with HL-60(TB) leukemia was 10.2 µM; with BT-549 breast, 2.15 µM; with SK-MEL-2 melanoma, 2.2 µM; in the assay on NCI-H226 lung it was 13.8 µM; in the assay on SN12C renal, 11.4 µM; in the assay on SK-MEL-5 melanoma, 3.68 µM. Moreover, the GI50 in the assay with PC-3 prostate was 2.62 µM; in the assay with NCI-H23 lung, 2.52 µM; with RXF 393 renal it was 1.66 µM; with UACC-257 melanoma, 1.64 µM. For the same molecule, the TGI amounted to 46.5 µM with HL-60(TB) leukemia; 4.8 µM in the assay on BT-549 breast; 4.99 µM in the assay on SK-MEL-2 melanoma; 53 µM in the assay with NCI-H226 lung; 30.3 µM in the assay on SN12C renal; 13.9 µM with SK-MEL-5 melanoma. Besides, the TGI in the assay on PC-3 prostate was found to be 7.34 µM; in the assay on NCI-H23 lung, 7.38 µM; in the assay on RXF 393 renal it was 3.1 µM; with UACC-257 melanoma it was 3.77 µM.
`O=C(O)C(Cc1ccc(O)c([N+](=O)[O-])c1)N1C(=O)c2ccccc2C1=O` (stereo not given): the TGI is 47 µM with HL-60(TB) leukemia; above 100 µM with BT-549 breast; above 100 µM in the assay with SK-MEL-2 melanoma; above 100 µM in the assay on NCI-H226 lung; above 100 µM with SN12C renal; above 100 µM in the assay on SK-MEL-5 melanoma. Also, the TGI in the assay on PC-3 prostate, in the assay with NCI-H23 lung, in the assay with RXF 393 renal and in the assay with UACC-257 melanoma was above 100 µM throughout.
Take `N#C/C(=C(\O)C(=O)O)c1ccc(-c2cccc3ccccc23)cc1`: the TGI in the assay with HL-60(TB) leukemia is 81.9 µM; in the assay with BT-549 breast, above 100 µM; in the assay with SK-MEL-2 melanoma, above 100 µM; in the assay with NCI-H226 lung, above 100 µM; in the assay with SN12C renal it was above 100 µM; with SK-MEL-5 melanoma, above 100 µM. Further, the TGI with PC-3 prostate, in the assay with NCI-H23 lung, in the assay on RXF 393 renal and with UACC-257 melanoma was above 100 µM each time.
Regarding `Cc1cc(O)cc(C)c1/C=C/c1cncc(C(=O)N(C)C)c1`, the GI50 in the assay with HL-60(TB) leukemia, in the assay with BT-549 breast, in the assay with SK-MEL-2 melanoma, with NCI-H226 lung, in the assay with SN12C renal and in the assay on SK-MEL-5 melanoma was above 25 µM each time. For the same molecule, the GI50 with PC-3 prostate, in the assay on NCI-H23 lung, in the assay on RXF 393 renal and in the assay with UACC-257 melanoma was above 25 µM in each case. Moreover, the TGI in the assay with HL-60(TB) leukemia, in the assay with BT-549 breast, in the assay with SK-MEL-2 melanoma, in the assay on NCI-H226 lung, in the assay with SN12C renal and with SK-MEL-5 melanoma was above 25 µM in each case. Moreover, the TGI with PC-3 prostate, in the assay on NCI-H23 lung, in the assay with RXF 393 renal and in the assay on UACC-257 melanoma was above 25 µM in each case.
Turning to `O=C1NC(=O)C(c2ccccc2Cl)=C1Nc1cccc(O)c1`, the GI50 in the assay on HL-60(TB) leukemia is 4.93 µM; in the assay with BT-549 breast, 9.62 µM; in the assay on SK-MEL-2 melanoma it was 1.99 µM; with NCI-H226 lung, 6.19 µM; in the assay on SN12C renal, above 19.4 µM; in the assay with SK-MEL-5 melanoma it was 1.67 µM. Moreover, the GI50 is 11.3 µM with PC-3 prostate, 10.5 µM in the assay on NCI-H23 lung, 1.92 µM in the assay with RXF 393 renal and above 25 µM in the assay with UACC-257 melanoma. Moreover, the TGI with HL-60(TB) leukemia, with BT-549 breast, in the assay on SK-MEL-2 melanoma, in the assay with NCI-H226 lung, in the assay with SN12C renal and in the assay with SK-MEL-5 melanoma was above 25 µM each time. Moreover, the TGI in the assay with PC-3 prostate was above 25 µM; with NCI-H23 lung, above 25 µM; in the assay with RXF 393 renal, above 21.1 µM; with UACC-257 melanoma, above 25 µM.
For `CCCCc1cc(O)ccc1O`, the GI50 in the assay with HL-60(TB) leukemia was 2.56 µM; in the assay on BT-549 breast it was 6.12 µM; with SK-MEL-2 melanoma, 35.8 µM; in the assay on NCI-H226 lung, 48.8 µM; in the assay on SN12C renal it was 18.7 µM; in the assay with SK-MEL-5 melanoma, 58.3 µM. The GI50 in the assay with PC-3 prostate is 10.5 µM; with NCI-H23 lung it was 67.1 µM; in the assay with RXF 393 renal it was 16.7 µM; in the assay on UACC-257 melanoma, 78.2 µM. Besides, the TGI in the assay on HL-60(TB) leukemia was 6.77 µM; with BT-549 breast it was above 100 µM; in the assay on SK-MEL-2 melanoma, above 100 µM; with NCI-H226 lung it was above 100 µM; in the assay with SN12C renal, above 100 µM; in the assay with SK-MEL-5 melanoma, above 100 µM. Further, the TGI in the assay with PC-3 prostate, in the assay on NCI-H23 lung, in the assay on RXF 393 renal and in the assay on UACC-257 melanoma was above 100 µM throughout.
`CCN(CC)C(=S)SSC1CCCCC1`: the GI50 was 13.6 µM with HL-60(TB) leukemia; 19 µM in the assay on BT-549 breast; 26.7 µM in the assay with SK-MEL-2 melanoma; 24.7 µM in the assay with NCI-H226 lung; 15.8 µM in the assay on SN12C renal; 12.5 µM in the assay with SK-MEL-5 melanoma. Moreover, the GI50 was 17.8 µM with PC-3 prostate, 20.8 µM with NCI-H23 lung, 16.4 µM in the assay on RXF 393 renal and 22.5 µM with UACC-257 melanoma. For the same molecule, the TGI in the assay on HL-60(TB) leukemia is 47.2 µM; in the assay with BT-549 breast, 46.5 µM; with SK-MEL-2 melanoma it was 61.2 µM; in the assay on NCI-H226 lung it was 76.1 µM; in the assay on SN12C renal it was 31.2 µM; with SK-MEL-5 melanoma, 26.3 µM. The TGI in the assay with PC-3 prostate amounted to 42.6 µM; with NCI-H23 lung it was 48.7 µM; in the assay on RXF 393 renal it was 31.2 µM; with UACC-257 melanoma it was 65 µM.
